Legend:
[1] = Inhibitory activity was determined against 9-cis-epoxycarotenoid dioxygenase (NCED) expressed in Escherichia coli in presence of 9''-cis-neo-xanthin
Spinacia oleracea [2] = experiment: Effect of compound at 100 uM concentration on ABA accumulation in spinachleaf slices determined as fresh weight of leaves (Experiment 1); type: functional
Spinacia oleracea [3] = experiment: Effect of compound at 100 uM concentration on ABA accumulation in spinachleaf slices determined as fresh weight of leaves (Experiment 2); type: functional
Spinacia oleracea [4] = experiment: Effect of compound at 100 uM concentration on ABA accumulation in spinachleaf slices determined as fresh weight of leaves (Experiment 3); type: functional
Spinacia oleracea [5] = experiment: Effect of compound at 0.4 M concentration on ABA accumulation in spinachleaf slices determined as fresh weight of leaves (Experiment 1); type: functional
Spinacia oleracea [6] = experiment: Effect of compound at 0.4 M concentration on ABA accumulation in spinachleaf slices determined as fresh weight of leaves (Experiment 2); type: functional
Spinacia oleracea [7] = experiment: Effect of compound at 0.4 M concentration on ABA accumulation in spinachleaf slices determined as fresh weight of leaves (Experiment 3); type: functional

SMILES	IC50 [1]	ABA content per fresh weight (Spinacia oleracea [2])	ABA content per fresh weight (Spinacia oleracea [3])	ABA content per fresh weight (Spinacia oleracea [4])	Fresh weight (Spinacia oleracea [5])	Fresh weight (Spinacia oleracea [6])	Fresh weight (Spinacia oleracea [7])
Oc1ccc(CCNCc2ccccc2O)cc1	160 µM	–	–	–	–	–	–
COC(=O)CN(C/C=C/c1ccc(OC)c(OC)c1)Cc1ccc(F)cc1	55 µM	14 ng/g	82.8 ng/g	65.6 ng/g	–	–	–
COc1ccc(CCN(C)Cc2ccc(OC)c(OC)c2)cc1	87 µM	–	–	–	–	–	–
COc1ccc(NC/C=C/c2ccc(OC)c(OC)c2)cc1	145 µM	26.1 ng/g	168.7 ng/g	137.1 ng/g	–	–	–
OC[C@@H](O)[C@@H](O)[C@H](O)[C@H](O)CO [MANNITOL]	–	–	–	–	22.7 ng/g	178.4 ng/g	134.9 ng/g
CC(Cc1ccc(O)c(O)c1)C(C)Cc1ccc(O)c(O)c1 (configuration not stated) [NORDIHYDROGUAIARETIC ACID]	183 µM	20.5 ng/g	165.3 ng/g	128.5 ng/g	–	–	–

Source: ChEMBL document CHEMBL1149204, “A new lead compound for abscisic acid biosynthesis inhibitors targeting 9-cis-epoxycarotenoid dioxygenase” (Bioorg Med Chem Lett, 2004)
